Measurements taken from US6673749B1, “Use of phyllocladane diterpenoids for plant growth promotion and alleviation of growth retardant allelochemicals, and method therefor” (Council of Scientific and Industrial Research, priority 2002, dated 2004).

Assays:
Type in all cases: in vivo
Hordeum vulgare = assay: Seed germination and seedling shoot/root growth test in petridishes; conditions: control = 100%
Summary of the method: (§1)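 Ten seeds per 9.0 cm dish on filter paper wetted with 0.1, 0.01 or 0.001 μM compound solution (ethanol or acetone cosolvent, matched in controls), in triplicate. Incubated 9 days at 25.0±1.0 °C, 90% humidity, 4 hr light/day. Germination and shoot and root length expressed relative to control taken as 100%.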

[1] = test system: Trigonella foenum-graecum; assay: as above; conditions: for Percent (%) germination of seeds in relation to control on 9th day after sowing / Percent (%) root growth of seedlings in relation to control on 9th day after sowing / Percent (%) shoot growth of seedlings in relation to control on 9th day after sowing: Trigonella foenum graecum, control = 100%
Summary of the method: as §1

Triticum aestivum = assay: as above; conditions: control = 100%
Summary of the method: as §1

Vigna radiata = assay: as above; conditions: Vigna radiata, control = 100%
Summary of the method: as §1

Hibiscus sabdariffa [2] = assay: Seed germination and seedling growth, comparison with GA3 (Example 4)
Method: (§2) 100 ml stalk solutions of 0.1 μM concentration were prepared by dissolving required amounts of various test compounds (depending upon their molecular weights) in minimum amount of ethanol or acetone and adding distilled water. From this stalk solution, 0.01 μM and 0.001 μM concentrations were prepared. Calliterpenone and calliterpenone di acetate was dissolved in 2.0 ml absolute ethanol (Merc), while; calliterpenone monoacetate, isopropylideno calliterpenone and trihydroxy calliterpenone were dissolved in 2.0 ml spectral grade acetone (Ranbaxy). The respective control test solutions of distilled water of each concentration also contained equal amount of absolute ethanol or acetone. For an assay, 10 seeds were placed on Whatman filter paper (moistened with 5.0 ml of test solution in a 9.0 cm diameter petridish (in triplicate). The pteridishes were incubated for 9 days in a germinator, maintained at 25.0±1.0° C. with 90% humidity and 4 hr light/day. At the end of incubation, observations were recorded on the seedlings in terms of germination, shoot and root growth. The data on the length of shoot and root of seedlings and number of seeds germinated in different concentrations of compounds were compared with the control, which was taken as 100%. The data thus obtained were presented in Table-1.
(§3) Effect of calliterpenone and its derivatives on seed germination and seedling growth in Hibiscus sabdariffa and Sesbania cannabina were measured in the similar way as these were measured in Example-1.

Sesbania cannabina [3] = assay: as above
Method: as §2, §3

Hibiscus sabdariffa [4] = assay: Antagonistic effect with Artemisia annua seed extract on germination and seedling growth; conditions: A. annua seed extract (1.3 g seeds/100 ml) alone or mixed 1:1 with 0.01 μm compound, control = 100%
Method: (§4) On the other hand, it is evident from Exp. 1-4 that phyllocladane diterpenenoids have produced germination and growth promoting activities on various plant species. To find out the combined effect of A. annua extract and phyllocladane diterpenoides on the germination and seedling growth of different plant species, 1:1 ratio of these compounds and A.annua extract were tested in the present experiment. For this, Hibiscus sabdariffa and Sesbania cannabina seeds were germinated in A.annua seed extract and solutions prepared by mixing this extract with 0.01 μm calliterpenone and calliterpenone mono-acetate respectively (Table 7). For the preparation of A.annua extract, 1.3 g seeds were soaked in 100 ml of distilled water for 24 hrs for testing on H. sabdariffa. Since, at this concentration, seeds of this species have shown 69% mortality which may be taken as good indicator. This effect was also recorded in S.cannabina. Since, in this case, seeds were almost half in weight as compared to the seeds of H. sabdariffa, accordingly, 0.65 g A. annua seeds were soaked in 100 ml of distilled water for 24 hrs to produce identical constraints in S. cannabina. For control, seeds were germinated in distilled water and all the observations were compared with it. […] Therefore, calliterpenone and its derivatives can be used to nullify the effects of other growth retardants/allelochemicals in the fields for their reclamation.

Sesbania cannabina [5] = assay: as above; conditions: A. annua seed extract (0.65 g seeds/100 ml) alone or mixed 1:1 with 0.01 μm compound, control = 100%
Method: as §4

For `CC(=O)OCC1(O)CC23CCC4C(C)(C)C(=O)CCC4(C)C2CCC1C3` (stereo not shown) [Calliterpenone Monoacetate, calliterpenone monoacetate], the “Percent (%) germination of seeds in relation to control on 9th day after sowing” value (shortened to “Percent (%) germination of seeds”) (Hordeum vulgare; 0.001 μM) was 100%, the “Percent (%) root growth of seedlings in relation to control on 9th day after sowing” value (“Percent (%) root growth of seedlings” below) (Hordeum vulgare; 0.001 μM) was 146% and the “Percent (%) shoot growth of seedlings in relation to control on 9th day after sowing” value (from here on “Percent (%) shoot growth of seedlings”) (Hordeum vulgare; 0.001 μM) was 113%. The “Percent (%) germination of seeds” value (Hordeum vulgare; 0.01 μM) was 100%, the “Percent (%) root growth of seedlings” value (Hordeum vulgare; 0.01 μM) was 114% and the “Percent (%) shoot growth of seedlings” value (Hordeum vulgare; 0.01 μM) was 117%. For the same molecule, the “Percent (%) germination of seeds” value (Hordeum vulgare; 0.1 μM) was 100%, the “Percent (%) root growth of seedlings” value (Hordeum vulgare; 0.1 μM) was 124% and the “Percent (%) shoot growth of seedlings” value (Hordeum vulgare; 0.1 μM) was 118%. The “Percent (%) germination of seeds” value ([1]; 0.001 μM) was 113%, the “Percent (%) root growth of seedlings” value ([1]; 0.001 μM) was 131% and the “Percent (%) shoot growth of seedlings” value ([1]; 0.001 μM) was 135%. The “Percent (%) germination of seeds” value ([1]; 0.01 μM) was 113%, the “Percent (%) root growth of seedlings” value ([1]; 0.01 μM) was 95% and the “Percent (%) shoot growth of seedlings” value ([1]; 0.01 μM) was 134%. The “Percent (%) germination of seeds” value ([1]; 0.1 μM) was 113%, the “Percent (%) root growth of seedlings” value ([1]; 0.1 μM) was 81% and the “Percent (%) shoot growth of seedlings” value ([1]; 0.1 μM) was 133%. For the same molecule, the “Seed germination as compared to 100% in control” value ([1]; Trigonella foenum-graceum, concentration not specified) was 113%, the “Percent (%) germination of seeds” value (Triticum aestivum; 0.001 μM) was 100% and the “Percent (%) root growth of seedlings” value (Triticum aestivum; 0.001 μM) was 145%. For the same molecule, the “Percent (%) shoot growth of seedlings” value (Triticum aestivum; 0.001 μM) was 106%, the “Percent (%) germination of seeds” value (Triticum aestivum; 0.01 μM) was 100% and the “Percent (%) root growth of seedlings” value (Triticum aestivum; 0.01 μM) was 102%. For the same molecule, the “Percent (%) shoot growth of seedlings” value (Triticum aestivum; 0.01 μM) was 107%, the “Percent (%) germination of seeds” value (Triticum aestivum; 0.1 μM) was 100% and the “Percent (%) root growth of seedlings” value (Triticum aestivum; 0.1 μM) was 88%. The “Percent (%) shoot growth of seedlings” value (Triticum aestivum; 0.1 μM) was 109%, the “Percent (%) germination of seeds” value (Vigna radiata; 0.001 μM) was 100% and the “Percent (%) root growth of seedlings” value (Vigna radiata; 0.001 μM) was 104%. The “Percent (%) shoot growth of seedlings” value (Vigna radiata; 0.001 μM) was 138%, the “Percent (%) germination of seeds” value (Vigna radiata; 0.01 μM) was 150% and the “Percent (%) root growth of seedlings” value (Vigna radiata; 0.01 μM) was 85%. The “Percent (%) shoot growth of seedlings” value (Vigna radiata; 0.01 μM) was 130%, the “Percent (%) germination of seeds” value (Vigna radiata; 0.1 μM) was 200% and the “Percent (%) root growth of seedlings” value (Vigna radiata; 0.1 μM) was 67%. For the same molecule, the “Percent (%) shoot growth of seedlings” value (Vigna radiata; 0.1 μM) was 123%, the “Enhancement in germination (in words)” value (Hibiscus sabdariffa [2]) was “did not produce any enhancement in germination” and the “Seed Ger.” value (Hibiscus sabdariffa [2]; 0.001 μM) was 3. The “Root Growth (mm) 3rd Day” value (Hibiscus sabdariffa [2]; 0.001 μM) was 16.3 mm, the “Shoot growth 3rd Day” value (Hibiscus sabdariffa [2]; 0.001 μM) was 28.8 and the “Root Growth (mm) 6th Day” value (Hibiscus sabdariffa [2]; 0.001 μM) was 19.3 mm. The “Shoot growth 6th Day” value (Hibiscus sabdariffa [2]; 0.001 μM) was 85.8, the “Root Growth (mm) 9th Day” value (Hibiscus sabdariffa [2]; 0.001 μM) was 24.8 mm and the “Shoot growth 9th Day” value (Hibiscus sabdariffa [2]; 0.001 μM) was 91.6. For the same molecule, the “Seed Ger.” value (Hibiscus sabdariffa [2]; 0.01 μM) was 2, the “Root Growth (mm) 3rd Day” value (Hibiscus sabdariffa [2]; 0.01 μM) was 17.5 mm and the “Shoot growth 3rd Day” value (Hibiscus sabdariffa [2]; 0.01 μM) was 33.5. The “Root Growth (mm) 6th Day” value (Hibiscus sabdariffa [2]; 0.01 μM) was 18.3 mm, the “Shoot growth 6th Day” value (Hibiscus sabdariffa [2]; 0.01 μM) was 67.5 and the “Root Growth (mm) 9th Day” value (Hibiscus sabdariffa [2]; 0.01 μM) was 21.3 mm. For the same molecule, the “Shoot growth 9th Day” value (Hibiscus sabdariffa [2]; 0.01 μM) was 75.2, the “Seed Ger.” value (Hibiscus sabdariffa [2]; 0.1 μM) was 0 and the “Root growth as compared to respective control” value (Sesbania cannabina [3]; 0.001 μM) was 114%. The “Seed Ger.” value (Sesbania cannabina [3]; 0.001 μM) was 3, the “Shoot growth as compared to respective control” value (Sesbania cannabina [3]; 0.001 μM) was 109% and the “Root Growth (mm) 3rd Day” value (Sesbania cannabina [3]; 0.001 μM) was 40.0 mm. For the same molecule, the “Shoot growth 3rd Day” value (Sesbania cannabina [3]; 0.001 μM) was 44.0, the “Root Growth (mm) 6th Day” value (Sesbania cannabina [3]; 0.001 μM) was 40.0 mm and the “Shoot growth 6th Day” value (Sesbania cannabina [3]; 0.001 μM) was 110.0. For the same molecule, the “Root Growth (mm) 9th Day” value (Sesbania cannabina [3]; 0.001 μM, 9th day) was 57.0 mm, the “Root growth as compared to GA3 taken as 100%” value (Sesbania cannabina [3]; 0.001 μM, 9th day) was 143% and the “Shoot growth 9th Day” value (Sesbania cannabina [3]; 0.001 μM, 9th day) was 120. The “Seed Ger.” value (Sesbania cannabina [3]; 0.01 μM) was 3, the “Root Growth (mm) 3rd Day” value (Sesbania cannabina [3]; 0.01 μM) was 28.3 mm and the “Shoot growth 3rd Day” value (Sesbania cannabina [3]; 0.01 μM) was 20.0. The “Root Growth (mm) 6th Day” value (Sesbania cannabina [3]; 0.01 μM) was 28.4 mm, the “Shoot growth 6th Day” value (Sesbania cannabina [3]; 0.01 μM) was 57.8 and the “Root Growth (mm) 9th Day” value (Sesbania cannabina [3]; 0.01 μM, 9th day) was 45.1 mm. For the same molecule, the “Shoot growth 9th Day” value (Sesbania cannabina [3]; 0.01 μM, 9th day) was 78.2, the “Seed Ger.” value (Sesbania cannabina [3]; 0.1 μM) was 2 and the “Root Growth (mm) 3rd Day” value (Sesbania cannabina [3]; 0.1 μM) was 5.5 mm. For the same molecule, the “Shoot growth 3rd Day” value (Sesbania cannabina [3]; 0.1 μM) was 11.0, the “Root Growth (mm) 6th Day” value (Sesbania cannabina [3]; 0.1 μM) was 7.5 mm and the “Shoot growth 6th Day” value (Sesbania cannabina [3]; 0.1 μM) was 50.0. For the same molecule, the “Root Growth (mm) 9th Day” value (Sesbania cannabina [3]; 0.1 μM, 9th day) was 23.0 mm, the “Shoot growth 9th Day” value (Sesbania cannabina [3]; 0.1 μM, 9th day) was 66.0 and the “Germination as compared to GA3 treatments” value (Sesbania cannabina [3]; concentration not given) was 150%. For the same molecule, the “Germination as compared to its control” value (Sesbania cannabina [3]; concentration not given) was 150%, the “Percent (%) germination in relation to control on the 9th day after sowing” value (Hibiscus sabdariffa [4]) was “completely checked the inhibitory effect” and the “Percent (%) seedling growth, Root, in relation to control on the 9th day after sowing” value (Hibiscus sabdariffa [4]) was 172%. The “Percent (%) seedling growth, Stem, in relation to control on the 9th day after sowing” value (Hibiscus sabdariffa [4]) was 169%, the “Percent (%) germination in relation to control on the 9th day after sowing” value (Sesbania cannabina [5]) was “completely checked the inhibitory effect” and the “Percent (%) seedling growth, Root, in relation to control on the 9th day after sowing” value (Sesbania cannabina [5]) was 175%. For the same molecule, the “Percent (%) seedling growth, Stem, in relation to control on the 9th day after sowing” value (Sesbania cannabina [5]) was 175%.
